Data as given in ChEMBL document CHEMBL1127991, “Design, synthesis and evaluation of dual domain FKBP ligands” (Bioorg Med Chem Lett, 1994).

What was measured:
[1] = biological target: T1, Peptidyl-prolyl cis-trans isomerase FKBP1A (Homo sapiens, UniProt P62942); assay: Compound was tested for inhibitory activity against FK506 binding protein 12 (FKBP12); details: read-out: Ki app
[2] = Immunosuppressant-like activity in an in vitro splenocyte mitogenesis assay at concentration up to 10 uM; ND means not detected; format: functional
[3] = biological target: T1, Peptidyl-prolyl cis-trans isomerase FKBP1A; assay: Compound was tested for inhibitory activity against FK506 binding protein 12 (FKBP12); Value ranges from 190-900 nM; details: read-out: Ki app
[4] = Immunosuppressant-like activity in an in vitro splenocyte mitogenesis assay at concentration up to 10 uM; format: functional

T1 sequence (P62942 whole entry): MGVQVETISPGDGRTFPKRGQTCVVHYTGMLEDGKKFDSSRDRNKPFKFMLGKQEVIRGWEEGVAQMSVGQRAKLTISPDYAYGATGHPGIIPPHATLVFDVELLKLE

| Ki [1] [µM] | IC50 [2] | SMILES | other results |
| --- | --- | --- | --- |
| 0.005 | Not detected | CCC(C)(C)C(=O)C(=O)N1CCCC[C@H]1C(=O)O[C@H](CCc1ccccc1)c1cccc(C(=O)c2ccccc2)c1 | – |
| – | Not detected | CCC(C)(C)C(=O)C(=O)N1CCCC[C@H]1C(=O)O[C@H](CCc1ccccc1)C(C)(C)/C=C/C(=O)c1ccccc1 | Ki [3]: 0.19 µM |
| – | Not detected | CCCC(CCC)C(=O)/C=C/C(C)(C)[C@@H](CCc1ccccc1)OC(=O)[C@@H]1CCCCN1C(=O)C(=O)C(C)(C)CC | Ki [3]: 0.19 µM |
| 0.4 | – | C=CC[C@@H]1/C=C(\C)C[C@H](C)C(=O)OCCCC(C)(C)C(=O)C(=O)N2CCCC[C@H]2C(=O)OCCCOC1=O | – |
| 6 | – | C=CC[C@@H]1/C=C(\C)C[C@H](C)C(=O)OCC(C)(C)C(=O)C(=O)N2CCCC[C@H]2C(=O)O[C@H](CCc2ccccc2)[C@H](C)COC1=O | – |
| 0.34 | Not detected | CCC(C)(C)C(=O)C(=O)N1CCCC[C@H]1C(=O)O[C@H](CCc1ccccc1)C(C)(C)/C=C/C(=O)C1CCCCC1 | – |
| 0.02 | – | CC1(C)COC(=O)CCCCCCCCC(=O)c2cccc(c2)C(CCc2ccccc2)OC(=O)[C@@H]2CCCCN2C(=O)C1=O (stereo partly drawn) | – |
| 0.175 | – | CC1(C)COC(=O)CCCCC(=O)/C=C/C(C)(C)[C@@H](CCc2ccccc2)OC(=O)[C@@H]2CCCCN2C(=O)C1=O | – |
| 0.025 | – | CC1(C)COC(=O)CCCCC(=O)CCC(C)(C)[C@@H](CCc2ccccc2)OC(=O)[C@@H]2CCCCN2C(=O)C1=O | – |
| 0.005 | Not detected | C=CCN(CC=C)C(=O)c1cccc([C@@H](CCc2ccccc2)OC(=O)[C@@H]2CCCCN2C(=O)C(=O)C(C)(C)CC)c1 | – |
| 0.13 | – | C=CC[C@@H]1/C=C(\C)C[C@H](C)C(=O)OCC(C)(C)C(=O)C(=O)N2CCCC[C@H]2C(=O)OCCCOC1=O | – |
| > 5 | – | C=CC[C@@H]1/C=C(\C)C[C@H](C)C(=O)OCCCC(C)(C)C(=O)C(=O)N2CCCC[C@H]2C(=O)O[C@H](CCc2ccccc2)[C@H](C)COC1=O | – |
| – | – | C=CC[C@@H]1/C=C(\C)C[C@H](C)C[C@H](OC)[C@H]2O[C@@](O)(C(=O)C(=O)N3CCCC[C@H]3C(=O)O[C@H](/C(C)=C/[C@@H]3CC[C@@H](O)[C@H](OC)C3)[C@H](C)[C@@H](O)CC1=O)[C@H](C)C[C@@H]2OC [TACROLIMUS ANHYDROUS] | IC50 [4]: 0.001 µM |
